Measurements: patent US10988477B2 (Merck Patent GmbH, priority 2018, dated 2021)

What was measured:
[1] = biological target: intracellular GCN2 (phosphorylation of the GCN2 substrate eIF2α) (Homo sapiens, UniProt Q9P2K8); assay: GCN2 cellular inhibition assay (AlphaScreen SureFire P-eIF2α Ser51, borrelidin-treated U2OS cells); format: cell-based; settings: biomarker assay, phosphorylated eIF2α Ser51 in borrelidin-treated U2OS cells
Method in brief: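 U2OS cells adhered overnight, then treated with compounds (4-fold serial dilutions from 40 μM final) plus borrelidin 10 μM final for 1 h at 37 °C. Lysate eIF2α Ser51 phosphorylation measured by AlphaScreen SureFire. Percent inhibition calculated relative to borrelidin-only wells.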

GCN2 kinase = GCN2 kinase (Homo sapiens, UniProt Q9P2K8); assay: GCN2 enzyme inhibition assay (Transcreener ADP2 fluorescence polarization); format: biochemical; settings: 280 μM ATP
Method in brief: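 Kinase activity is followed as ADP formation, measured by fluorescence polarization, using 4 nM enzyme with 280 μM ATP and 200 μM (RS)7 peptide at pH 7.5 and 25 °C for 1 h. Values come from a non-linear tight-binding fit.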

[2] = compounds of Formula II, 4 nM GCN2 kinase
[3] = Enzyme activity for compounds of Formula IV, Ki(app), 25° C.

Chain of intracellular GCN2 (phosphorylation of the GCN2 substrate eIF2α) (Q9P2K8 whole entry): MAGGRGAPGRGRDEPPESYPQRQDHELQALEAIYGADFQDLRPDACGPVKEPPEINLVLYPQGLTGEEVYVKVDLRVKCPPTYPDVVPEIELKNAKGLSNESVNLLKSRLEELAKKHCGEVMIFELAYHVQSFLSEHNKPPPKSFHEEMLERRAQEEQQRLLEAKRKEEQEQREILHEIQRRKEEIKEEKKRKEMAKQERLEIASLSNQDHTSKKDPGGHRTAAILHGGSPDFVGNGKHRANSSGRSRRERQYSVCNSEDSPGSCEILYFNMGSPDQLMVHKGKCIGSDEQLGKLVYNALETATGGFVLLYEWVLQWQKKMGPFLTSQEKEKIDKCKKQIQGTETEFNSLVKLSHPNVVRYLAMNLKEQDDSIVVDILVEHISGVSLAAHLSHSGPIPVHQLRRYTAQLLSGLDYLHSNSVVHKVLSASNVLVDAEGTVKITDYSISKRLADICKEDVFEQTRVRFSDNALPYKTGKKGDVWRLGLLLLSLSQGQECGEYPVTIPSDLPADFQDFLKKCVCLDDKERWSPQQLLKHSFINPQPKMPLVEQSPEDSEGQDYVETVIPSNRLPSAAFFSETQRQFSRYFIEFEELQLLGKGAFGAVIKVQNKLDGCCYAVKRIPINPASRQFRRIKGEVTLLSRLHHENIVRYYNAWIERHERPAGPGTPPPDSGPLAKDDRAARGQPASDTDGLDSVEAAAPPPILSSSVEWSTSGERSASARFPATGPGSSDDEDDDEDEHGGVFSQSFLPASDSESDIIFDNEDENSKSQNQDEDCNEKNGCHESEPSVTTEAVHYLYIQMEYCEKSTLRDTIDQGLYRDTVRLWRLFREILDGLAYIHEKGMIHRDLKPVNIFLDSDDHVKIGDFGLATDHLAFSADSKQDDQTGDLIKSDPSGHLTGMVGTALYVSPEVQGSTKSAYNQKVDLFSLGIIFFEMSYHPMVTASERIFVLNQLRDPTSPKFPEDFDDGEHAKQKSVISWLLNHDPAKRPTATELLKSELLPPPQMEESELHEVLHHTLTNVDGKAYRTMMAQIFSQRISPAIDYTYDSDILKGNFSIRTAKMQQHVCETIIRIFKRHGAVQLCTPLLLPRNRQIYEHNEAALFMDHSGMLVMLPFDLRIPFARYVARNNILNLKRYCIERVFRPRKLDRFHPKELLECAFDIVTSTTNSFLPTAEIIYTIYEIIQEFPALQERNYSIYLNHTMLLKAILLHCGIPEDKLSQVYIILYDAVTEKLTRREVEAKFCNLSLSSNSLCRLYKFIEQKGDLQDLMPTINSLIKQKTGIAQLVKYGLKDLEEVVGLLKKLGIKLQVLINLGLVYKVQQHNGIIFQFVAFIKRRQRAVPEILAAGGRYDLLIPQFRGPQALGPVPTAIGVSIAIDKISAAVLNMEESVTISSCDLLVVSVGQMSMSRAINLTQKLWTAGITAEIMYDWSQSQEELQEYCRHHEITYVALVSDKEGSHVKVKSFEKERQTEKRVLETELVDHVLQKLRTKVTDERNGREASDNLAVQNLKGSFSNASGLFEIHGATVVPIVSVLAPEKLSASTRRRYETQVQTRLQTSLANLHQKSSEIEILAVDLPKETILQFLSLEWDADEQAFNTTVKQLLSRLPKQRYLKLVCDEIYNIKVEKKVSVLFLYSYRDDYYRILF
Chain of GCN2 kinase (Q9P2K8 whole entry): as above

| IC50 ([1]; compounds of Formula II) [nM] | Ki (GCN2 kinase; [2]) [nM] | IC50 ([1]; compounds of Formula IV) [nM] | Ki (GCN2 kinase; [3]) [nM] | SMILES |
| --- | --- | --- | --- | --- |
| < 500 | < 10 | – | – | CNc1cc(-c2cnc3ccc(C(F)F)nn23)cc(N2CC(C)C(F)(F)C(CNS(C)(=O)=O)C2)n1 (stereo not shown) [II-64, N-((1-(4-(6-(Difluoromethyl)imidazo[1,2-b]pyridazin-3-yl)-6-(methylamino)pyridin-2-yl)-4,4-difluoro-5-methylpiperidin-3-yl)methyl)methanesulfonamide] |
| – | – | 500 to 5000 | 100 to 1000 | CC1CN(c2ccnc(-c3cnc4cnc(C(F)(F)F)cn34)n2)C(C)C(c2cn[nH]c2)O1 (single isomer, unassigned) [IV-450, 3,6-Dimethyl-2-(1H-pyrazol-4-yl)-4-(2-(6-(trifluoromethyl)imidazo[1,2-a]pyrazin-3-yl)pyrimidin-4-yl)morpholine] |
| > 5000 | 10 to 1000 | – | – | CS(=O)(=O)NCC1CCCN(c2cc(-c3cnc4ccc(C(F)F)nn34)cc(C#N)n2)C1 (stereo not shown) [II-130, N-((1-(6-Cyano-4-(6-(difluoromethyl)imidazo[1,2-b]pyridazin-3-yl)pyridin-2-yl)piperidin-3-yl)methyl)methanesulfonamide] |
| > 5000 | 10 to 1000 | – | – | CC1C(CNS(C)(=O)=O)C(F)(F)C(C)CN1c1cc(-c2cnc3ccc(C(F)F)nn23)ncn1 (single isomer, unassigned) [II-471, N-((1-(6-(6-(Difluoromethyl)imidazo[1,2-b]pyridazin-3-yl)pyrimidin-4-yl)-4,4-difluoro-2,5-dimethylpiperidin-3-yl)methyl)methanesulfonamide] |
| > 5000 | 10 to 1000 | – | – | O=C1CCC2CN(c3cc(-c4cnc5ccc(C(F)F)nn45)ccn3)CCN12 (stereo not shown) [II-167, 2-(4-(6-(Difluoromethyl)imidazo[1,2-b]pyridazin-3-yl)pyridin-2-yl)hexahydropyrrolo[1,2-a]pyrazin-6(2H)-one] |
| – | – | 500 to 5000 | 10 to 100 | CC1CN(c2nccc(-c3cnc4cnc(C(F)(F)F)cn34)n2)CC(c2cn[nH]c2)O1 (single isomer, unassigned) [IV-202, 2-Methyl-6-(1H-pyrazol-4-yl)-4-(4-(6-(trifluoromethyl)imidazo[1,2-a]pyrazin-3-yl)pyrimidin-2-yl)morpholine] |
| < 500 | < 10 | – | – | CC(=O)N1CC2(C1)CN(c1cc(-c3cnc4ccc(C(F)F)nn34)cc(N3CCCC(CNS(C)(=O)=O)C3)n1)C2 (stereo not shown) [II-55, N-((1-(6-(6-Acetyl-2,6-diazaspiro[3.3]heptan-2-yl)-4-(6-(difluoromethyl)imidazo[1,2-b]pyridazin-3-yl)pyridin-2-yl)piperidin-3-yl)methyl)methanesulfonamide] |
| 500 to 5000 | 10 to 1000 | – | – | O=C1CCN(c2cc(-c3cnc4ccc(C(F)F)nn34)ccn2)CCN1 [II-164, 1-(4-(6-(Difluoromethyl)imidazo[1,2-b]pyridazin-3-yl)pyridin-2-yl)-1,4-diazepan-5-one] |
| < 500 | < 10 | – | – | C[C@@H]1CO[C@H](CNS(C)(=O)=O)CN1c1cc(-c2cnc3ccc(C(F)F)nn23)ncn1 [II-197, N-(((2S,5R)-4-(6-(6-(Difluoromethyl)imidazo[1,2-b]pyridazin-3-yl)pyrimidin-4-yl)-5-methylmorpholin-2-yl)methyl)methanesulfonamide] |
| 500 to 5000 | 10 to 1000 | – | – | CC1CC(C(N)=O)C(C)N(c2cc(-c3cnc4ccc(C(F)(F)F)nn34)ncn2)C1 (racemic) [II-720, 2,5-Dimethyl-1-[6-[6-(trifluoromethyl)imidazo[1,2-b]pyridazin-3-yl]pyrimidin-4-yl]piperidine-3-carboxamide] |
| 500 to 5000 | < 10 | – | – | CC1(C)CN(c2cc(-c3cnc4ccc(C(F)F)nn34)ncn2)CC1CNS(C)(=O)=O (stereo not shown) [II-213, N-((1-(6-(6-(Difluoromethyl)imidazo[1,2-b]pyridazin-3-yl)pyrimidin-4-yl)-4,4-dimethylpyrrolidin-3-yl)methyl)methanesulfonamide] |
